Test results reported in publication PMC12067128, “Macrocyclization: Enhancing Drug-like Properties of Discoidin Domain Receptor Kinase Inhibitors” (ACS Medicinal Chemistry Letters, 2025).
Where two headings read alike, the source gives them in different places.

What was measured:
in vitro = conditions: dog, MDCK, pH 7.4
[1] = pH-metric determination of pKa values (SiriusT3); type: physicochemical; conditions: methanol/ISA water cosolvent mixtures (0.15 M KCl), MeOH:ISA water cosolvent, extrapolated to 0% cosolvent, 25 °C, n=4
Description: pH-metric determination of pKa values
Experimental pKa was determined by pH-metric approaches using SiriusT3 (PIon Inc. Ltd, Forrest Row, UK) instrument which integrates a dispenser module equipped with precision dispensers, 0.5 mL syringes, a multi-tip capillary bundle, a titrator module, a microstirrer with variable speed, a combined double junction Ag/AgCl pH and reference electrode and a fibre optics dip probe connected to a deuterium UV pulsed light source and a photodiode array (PDA) detector, acquiring spectra in the 200-700 nm wavelength range. SiriusT3 Control software v 1.1.3.0 was employed for acquisition, while Sirius T3 Refine software v. 1.1.3.0 was used for data analysis. The glass microelectrode was standardized by means of a strong acid-strong base titration (0.5N HCl vs. 0.5N KOH) in the pH range 2.0-12.0 at fixed temperature (25±0.5°C) and I = 0.15 M for KCl addition, in N2 atmosphere. […]
The original method was described in a previous paper.e Briefly, a HPLC Thermo Fisher Scientific Dionex Ultimate 3000 instrument equipped with a Low-Pressure Mixing Gradient Pump LPG-3400 SD, ACC-3000 autosampler with termostatable column compartment, a DAD-3000 RS Detector and Chromeleon Data System Version 7.2.10 was used. […] The dead time, t0, was determined by monitoring the baseline disturbance. […]

[2] = MDCK-WT permeability assay; conditions: dog, MDCK, pH 7.4

Compound | Papp A→B at 1 h, 10 µM (in vitro) [×10⁻⁶ cm/s] | pKa ([1]; read-out: pKa (basic), amino group (propan-1-amine)) | pKa ([1]; read-out: pKa (basic), pyrrolo-pyrimidine moiety) | permeability in the MDCK model (in words) (MDCK-WT wild-type cells) | Papp A→B at 1 h, 10 µM [2] [×10⁻⁶ cm/s]
Cn1cc2c3nc(ncc31)Nc1cnn(c1)CCCNCCOc1ccc-2cc1 [Compound 5a] | 18.4 ± 0.6 | 8.2 | 4.35 | highly permeable | 
Cn1cc2c3nc(ncc31)Nc1cnn(c1)CCCNC(=O)COc1ccc-2cc1 [Compound 5b] |  |  |  |  | 21 ± 0.8
c1cc2nc(n1)Nc1cnn(c1)CCCNCCOc1ccc(cc1)N2 [Compound 6a] | 5.8 ± 1.1 |  |  | moderately permeable | 
O=C1COc2ccc(cc2)Nc2ccnc(n2)Nc2cnn(c2)CCCN1 [Compound 6b] |  |  |  |  | 4.8 ± 1
